Test results reported in patent US7632864B2, “Gabapentin analogues and process thereof” (Hikal Ltd., priority 2005, dated 2009).
pIC50: −log10 of the molar value.

Legend:
[1] = test system: alpha 2 detla sub unit derived from porcine brain tissue; details: radio ligand binding, compound without stereochemistry, value from U.S. Pat. No. 6,103,932; cited from earlier work
[2] = water solubility (precipitation of free amino acid at pH 7); type: physicochemical; details: compared to the other gabapentin analogues
Method: The process for the preparation of the cis and trans isomer of 4-t-butylgabapentin has been achieved, as outlined in Fig. I. 4-t-Butyl-cyclohexanone (I) was treated with ethylcyano acetate and ammonia in methanol to yield ammonium salt of dicyanoimide (2). Hydrolysis of (2) with hot sulfuric acid afforded the diacid (3) which was converted to the anhydride (4). (4) treated with aqueous ammonia to give the mono-amide (5) as a mixture containing approximately equal proportions of stereoisomers. Reaction of (5) with sodium hypobromite solution led to the formation of lactam (6) as a mixture of stereoisomers [proton NMR (7) and its isomer with NCH2 axial in the ratio of 3:2] from which one of the isomer could be crystallized out in pure form from methanol-hexane, mp 176-7° C. and its structure identified as (7) by NMR and single crystal X-ray analysis (Hydrolysis of lactam (6) with hot concentrated HCl gave a mixture of isomers of 4-t-butyl gabapentin hydrochloride (8). Crystallization of (8) from water afforded in pure form, mp 146-147° C., the isomer hemihydrate (9) with aminomethyl group in the anxial position. […]

Question: With `CC(C)(C)C1CCC(CN)(CC(=O)O)CC1` (stereo not shown) [4-t-butyl gabapentin] as the compound, how does the melting point read?
Answer: The melting point was 176 to 180 °C.

Question: What about the pIC50 [1] of the same compound?
Answer: Its pIC50 is 3.70.

Question: With `CC(C)(C)C1CCC(CN)(CC(=O)O)CC1` (stereo not shown) [Compound 10, 4-t-butylgabapentin] as the compound, how does the water solubility [2] read?
Answer: Its water solubility is “much poorer water solubility”.

Question: And the melting point?
Answer: Its melting point is 182 to 183 °C.
